Some test systems named below: ACHN renal; BT-549 breast; HCT-116 colon; IGROV1 ovarian; NCI-H226 lung; OVCAR-5 ovarian; OVCAR-8 ovarian; SF-268 CNS; SK-MEL-28 melanoma; U251 CNS.
Common to all, as to experiment: inhibition of tumour cell growth, NCI panel, 48 h

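Test compounds were applied to cells in 96-well plates for 48 hours at 5 doses. TGI denotes the concentration required for complete inhibition of growth.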

For `O=C1COc2ccc([N+](=O)[O-])cc2C(=O)C1`, the TGI with ACHN renal, with BT-549 breast, in the experiment on HCT-116 colon, with IGROV1 ovarian, with NCI-H226 lung and with OVCAR-5 ovarian was over 10 µM in each case. Further, the TGI in the experiment on OVCAR-8 ovarian, with SF-268 CNS, with SK-MEL-28 melanoma and in the experiment on U251 CNS was over 10 µM each time.

For `COc1cc(CC2c3cc(OC)c(OC)cc3CCN2C)c(Oc2cc3c(cc2OC)-c2c(O)c(OC)cc4c2C(C3)N(C)CC4)cc1OC` (stereo not given), the TGI with ACHN renal was 49.8 µM; with BT-549 breast it was 32.4 µM; with HCT-116 colon, over 100 µM; in the experiment with IGROV1 ovarian, 45.1 µM; in the experiment on NCI-H226 lung, 66.2 µM; in the experiment with OVCAR-5 ovarian, over 100 µM. Further, the TGI in the experiment with OVCAR-8 ovarian is 44.5 µM; with SF-268 CNS, 46 µM; in the experiment with SK-MEL-28 melanoma, 63.2 µM; in the experiment with U251 CNS it was over 100 µM.

On to `CCCCCCCCCCCCCCCCCCNc1ccn(C2OC(COP(=O)(O)OCC3OC(n4cc(C)c(=O)[nH]c4=O)CC3N=[N+]=[N-])C(O)C2O)c(=O)n1` (stereo not given), for which the TGI is over 100 µM in the experiment on ACHN renal; 49.2 µM in the experiment with BT-549 breast; over 100 µM in the experiment with HCT-116 colon; 42.5 µM in the experiment on IGROV1 ovarian; 43.7 µM in the experiment with NCI-H226 lung; 34.2 µM in the experiment with OVCAR-5 ovarian. Also, the TGI was found to be 48.8 µM in the experiment on OVCAR-8 ovarian, 43.6 µM with SF-268 CNS, 36.8 µM with SK-MEL-28 melanoma and 36.2 µM in the experiment on U251 CNS.

`CC(C)c1ccc(/C=C2\CSCC3=C2NC(=S)NC3c2ccc(C(C)C)cc2)cc1` (stereo not given): the TGI in the experiment on ACHN renal, in the experiment with BT-549 breast, in the experiment with HCT-116 colon, in the experiment with IGROV1 ovarian, in the experiment on NCI-H226 lung and in the experiment with OVCAR-5 ovarian was over 100 µM each time. Besides, the TGI in the experiment with OVCAR-8 ovarian, with SF-268 CNS, with SK-MEL-28 melanoma and with U251 CNS was over 100 µM in each case.

Regarding `O=C1/C(=C/c2ccccc2[N+](=O)[O-])N=C(c2ccccc2)N1C1Nc2cc3c(cc2S1)NC(N1C(=O)/C(=C/c2ccccc2[N+](=O)[O-])N=C1c1ccccc1)S3` (stereo not given), the TGI with ACHN renal, with BT-549 breast, in the experiment on HCT-116 colon, with IGROV1 ovarian, in the experiment on NCI-H226 lung and with OVCAR-5 ovarian was over 100 µM throughout. Further, the TGI with OVCAR-8 ovarian, in the experiment with SF-268 CNS, in the experiment with SK-MEL-28 melanoma and in the experiment on U251 CNS was over 100 µM each time.

Regarding `Cc1cc(-c2nc3ccccc3s2)ccc1NC(=O)[C@H](C)N`, the TGI with ACHN renal turned out to be 27.5 µM; in the experiment on BT-549 breast, 31.2 µM; in the experiment with HCT-116 colon, 23.4 µM; with IGROV1 ovarian, 23.4 µM; with NCI-H226 lung, 13.4 µM; in the experiment on OVCAR-5 ovarian, 19.1 µM. Moreover, the TGI in the experiment on OVCAR-8 ovarian was determined as 37.4 µM; in the experiment on SF-268 CNS it was 52.5 µM; in the experiment on SK-MEL-28 melanoma it was 29.3 µM; with U251 CNS, 33.9 µM.

On to `CCOc1nc(-c2ccccc2)cc(-c2ccc(N3CCOCC3)cc2)c1C#N`, for which the TGI in the experiment on ACHN renal, in the experiment with BT-549 breast, in the experiment with HCT-116 colon, with IGROV1 ovarian, in the experiment on NCI-H226 lung and with OVCAR-5 ovarian was over 100 µM in each case. In addition, the TGI in the experiment with OVCAR-8 ovarian, in the experiment with SF-268 CNS, in the experiment on SK-MEL-28 melanoma and in the experiment with U251 CNS was over 100 µM in each case.

On to `CN(C)CCNC(=O)c1cccc2nc3c(nc12)-c1ccccc1C3=O`, for which the TGI is 32.1 µM in the experiment with ACHN renal; 29.7 µM with BT-549 breast; 88.3 µM with HCT-116 colon; over 71.1 µM in the experiment with IGROV1 ovarian; 39.6 µM with NCI-H226 lung; 90.1 µM in the experiment on OVCAR-5 ovarian. Also, the TGI in the experiment with OVCAR-8 ovarian was 62.7 µM; in the experiment with SF-268 CNS, 32.2 µM; in the experiment with SK-MEL-28 melanoma it was 37.3 µM; with U251 CNS, 45.6 µM.

As to `COc1ccc2c(c1)n([O-])c(C#N)c(N1CCN(c3ccc([N+](=O)[O-])cc3)CC1)[n+]2=O`, the TGI with ACHN renal is over 100 µM; with BT-549 breast, over 76.7 µM; in the experiment on HCT-116 colon it was over 100 µM; with IGROV1 ovarian, over 100 µM; with NCI-H226 lung, over 100 µM; in the experiment with OVCAR-5 ovarian, over 100 µM. Also, the TGI with OVCAR-8 ovarian was over 100 µM; in the experiment with SF-268 CNS, over 34.4 µM; in the experiment with SK-MEL-28 melanoma, over 69.7 µM; with U251 CNS, over 100 µM.

For the compound `OC1(c2cc3ccccc3s2)CCCCC1`, the TGI with ACHN renal, in the experiment on BT-549 breast, with HCT-116 colon, with IGROV1 ovarian, with NCI-H226 lung and with OVCAR-5 ovarian was over 100 µM each time. Besides, the TGI is over 100 µM with OVCAR-8 ovarian, 93.6 µM with SF-268 CNS, over 100 µM in the experiment on SK-MEL-28 melanoma and over 100 µM in the experiment on U251 CNS.

For `CNC(=O)c1cc(NC(=O)N(CCC#N)CCN(C(=O)N[C@@H](Cc2ccccc2)C(=O)N[C@@H](CC(C)C)C(=O)NC)c2ccccc2)ccc1OC`, the TGI is over 100 µM in the experiment on ACHN renal; over 100 µM in the experiment on BT-549 breast; over 100 µM in the experiment on HCT-116 colon; over 73.2 µM in the experiment on IGROV1 ovarian; over 100 µM in the experiment with NCI-H226 lung; over 100 µM in the experiment with OVCAR-5 ovarian. Besides, the TGI is over 100 µM with OVCAR-8 ovarian, over 65.7 µM in the experiment on SF-268 CNS, over 61.9 µM in the experiment on SK-MEL-28 melanoma and over 100 µM in the experiment with U251 CNS.

In the case of `O=C(OCc1ccccc1)C1(N2CN(C3(C(=O)OCc4ccccc4)CCCC3)CN(C3(C(=O)OCc4ccccc4)CCCC3)C2)CCCC1`, the TGI in the experiment with ACHN renal, in the experiment on BT-549 breast, in the experiment with HCT-116 colon, with IGROV1 ovarian, in the experiment on NCI-H226 lung and in the experiment with OVCAR-5 ovarian was over 10 µM each time. Also, the TGI with OVCAR-8 ovarian, in the experiment on SF-268 CNS, in the experiment with SK-MEL-28 melanoma and in the experiment on U251 CNS was over 10 µM throughout.

Turning to `CN(C)Cc1cc(O)c(O)c(CN(C)C)c1`, the TGI in the experiment on ACHN renal, with BT-549 breast, with HCT-116 colon, in the experiment on IGROV1 ovarian, in the experiment on NCI-H226 lung and in the experiment on OVCAR-5 ovarian was over 100 µM in each case. Also, the TGI in the experiment with OVCAR-8 ovarian, with SF-268 CNS, with SK-MEL-28 melanoma and in the experiment with U251 CNS was over 100 µM each time.

(Values after PubChem BioAssay (NCI).)
